# Data published in patent US4837342A, “Prostacyclin analogue, and blood circulation improving agent and anti-ulcer composition containing it as active ingredient” (Sagami Chemical Research Center, priority 1986, dated 1989).
# Several values for one entry are separate records, joined by “and”; a condition that tells them apart may be missing. Equal entries are not always repeated.
# Legend:
# vertebral artery = assay: Blood flow-increasing activity in the vertebral artery, anesthetized dog; assay type: in vivo, crossbred adult dog; conditions: for ED50: Canis lupus familiaris, papaverine hydrochloride 100 μg/kg = 100%; for Activity ratio, blood flow-increasing activity in vertebral artery: relative to prostacyclin = 1
# Description: Blood flow-increasing activity in the vertebral artery
# A made or female crossbred adult dog having a weight of from 8 to 13 kg was anesthetized by intravenous administration of sodium Pentobarbital and subjected to thoractomy along the mediam line under artificial respiration to expose the left vertebral artery. Under sodium peparin treatment, a polyethylene cannula was inserted into the vertebral artery, and a blood flow-measuring probe was attached to its other end, to which a blood circulation tube led from the left femoral artery was connected, whereby the blood flow in the vertebral artery was measured by using an electromagnetic flow meter. The test compound was injected into the vertebral artery by near arterial injection, and the blood flow-increasingactivity in the vertebral artery was represented by ED50 (i.e. the dose of a test compound at which the blood flow increases by 50%, as evaluated on the basis that the blood flow increase (representing substantially the maximum reaction) by the administration of 100 μg/kg papaverine hydrochloride into the vertebral artery, is evaluated to be 100%).
# Indomethacine ulcer = Indomethacine ulcer inhibiting activity; assay type: in vivo, Male wister rats; conditions: rat; oral administration of 60 μg/kg twice
# Description: Indomethacine ulcer inhibiting activity
# Male wister rats having a weight of from 210 to 270 g were used. The rats were starved in the same manner as in Test Example 6. […] Three hours after the indomethacine administration, the test compound or PGE2 was again orally administered in the same amount. Six hours after the first administration of indomethacine, each rat was killed by cervical bertebral luxation. The stomach was taken out and fixed, and the ulcer index was obtained, in the same manner as in Test Example 6.
# The indomethacine ulcer inhibiting activity of a test compound was represented by the inhibiting percentage (i.e. the inhibiting percentage of the ulcer index of the treated group to the ulcer index of the non-treated group). To the non-treated group, the solvent was administered.
# coronary artery = assay: Blood flow-increasing activity in the coronary artery, anesthetized dog; assay type: in vivo, crossbred adult dog; conditions: for ED50: Canis lupus familiaris, dog, near arterial injection, reactive hyperemia = 100%; for Activity ratio, blood flow-increasing activity in coronary artery: relative to prostacyclin = 1
# Protocol: Blood flow-increasing activity in the coronary artery
# A crossbred adult dog having a weight of from 9 to 15 kg was anesthetized with sodium Pentobarbital and subjected to thoractomy under artificial respiration. After pericardiectomy, the frontal descending branch of the left coronary artery was separated from the surrounding tissues, and a blood flow-measuring probe was attached thereto under sodium heparin treatment. The coronary blood flow was measured by using an electromagnetic flow meter. The test compound was injected into the coronary artery by near arterial injection, and the blood flow-increasing activity in the coronay artery was represented by ED50 (i.e. the dose of a test compound at which the blood flow increases by 50%, as evaluated on the basis that the blood flow increase by the reactive hyperemia caused by releasing the blood flow of the coronary artery after blocking it for 15 seconds, is evaluated to be 100%).
# ulcer = assay: Anti-ulcer activity (general statement); assay type: in vivo, animals; conditions: compared with typical PG such as PGE2
# Description: On the basis of this discovery, a further research has been made for the application to the prevention and treatment of digestive organ ulcers, and have accomplished the present invention.
# [1] = test system: Blood platelet (Collagen agglutination); assay: Blood platelet agglutination inhibiting activity (collagen-induced), washed rabbit platelet suspension; assay type: cell-based, rabbit (Japanese white male rabbits); conditions: for Activity ratio, platelet agglutination inhibiting activity, Collagen agglutination: relative to prostacyclin = 1; for IC50: Oryctolagus cuniculus, Platelet, collagen 1 μg/ml, concentration suppressing agglutination to 50%, read-out: Platelet agglutination inhibiting activity ED50, Collagen agglutination
# Protocol: (§1) Blood platelet aggutination inhibiting activity
# (§2) Japanese white male rabbits having a weight of from 2.0 to 2.5 kg were used.
# (§3) Under anesthesia with sodium Pentobarbital, blood was sampled from the carotid artery, and mixed with a 1/7 volume of an anticoagulant citric acid dextrose solution. Then, the mixture was subjected to centrifugal separation at 140×g for 15 minutes, whereupon the supernatant (platelet rich plasma:PRP) was obtained. PRP was subjected to centrifugal separation at 1,300×g for 7 minutes. The blood platelet pellets thus obtained were washed with a HEPES buffer solution (pH 6.5) for washing blood platelets, and subjected to centrifugal separation at 1,300×g for 7 minutes. The blood platelet pellets washed twice under such condition, were suspended in a suspending liquid (a buffer solution for washing blood platelets, which contains 0.1% of human fibrinogen, 1.8 mM of CaCl2 and 1.2 mM of MgCl2) to obtain a blood platelet suspension having a concentration of from 5×10^8 to 8×10^8 platelets/ml.
# (§4) The platelet agglutination ability was measured by means of an agglutination meter. To 380 μl of the platelet suspension, 10 μl of a test compound or a solvent as the control, was added. Three minutes later, 10 μl of a platelet agglutinating substance (10 μM of ADP or 1 μg/ml of collagen, as the final concentration) was added thereto to induce agglutination.
# (§5) The blood platelet agglutination inhibiting activity of each test compound was represented by ED50 (i.e. the concentration of the test compound where the platelet agglutination is suppressed to 50%).
# Ethanol ulcer = Ethanol ulcer inhibiting activity; assay type: in vivo, Male wister rats; conditions: rat; for ED50: po, P.O., 30 minutes before 99.5% ethanol
# Protocol: Ethanol ulcer inhibiting activity
# Male wister rats having a weight of from 170 to 270 g were put into individual cages and starved for 24 hours. During this starvation period, the rats were allowed to drink water freely. A test compound or PGE2 as a comparative compound was orally administered in an amount of 3, 10 or 30 μg/kg, and 30 minutes later, 1 ml of 99.5% ethanol was orally administered to each rat. One hour after the ethanol administration, each rat was filled by cervical vertebral luxation, and the stomach was taken out. A 1% formaline solution was injected into the stomach in an amount of about 8 ml, and the stomach was fixed in the formaline solution for 30 minutes. After the fixing, the stomach was severed along the greater curvature, and the mucous membrane surface of the stomach was gently washed with flowing water. Then, the total length of damages appearing on the gastric glandular portion was obtained and used as the ulcer index.
# The ethanol ulcer inhibiting activity of a test compound was represented by ED50 (i.e. the dose of the test compound at which the ulcer was inhibited by 50% relative to the ulcer index of the non-treated group). To the non-treated group, the solvent was administered.
# diastolic blood pressure = assay: Hypotensive activity, anesthetized dog; assay type: in vivo, crossbred adult dog; conditions: for Hypotensive activity, blood pressure decrease: at 10 μg/kg i.v.; for Activity ratio, hypotensive activity: relative to prostacyclin = 1
# Protocol: A male or female crossbred adult dog having a weight of from 9 to 14 kg was anesthetized by intraveous administration of sodium Pentobarbital. Then, the left carotid was exposed under artificial respiration, and the blood pressure was measured by using an electric blood pressure meter. […]
# Hydrochloric acid ulcer = Hydrochloric acid ulcer inhibiting activity; assay type: in vivo, wister rats; conditions: rat; oral administration of 30 μg/kg; 0.6N hydrochloric acid; read-out: Hydrochloric acid ulcer inhibiting activity, Inhibiting rate
# Protocol: Hydrochloric acid ulcer inhibiting activity
# Male wister […] having a weight of from 190 to 240 g were used. The rats were starved in the same manner as in Test Example 6, and the test compounds and PGE2 were, respectively, orally administered in an amount of 30 μg/kg, and 30 minutes later, 1 ml of 0.6N hydrochloric acid was orally administered. Thirty minutes after the hydrochloric acid administration, each rat was killed by cervical vertebral luxation. Then, the stomach was taken out and fixed, and the ulcer index was obtained, in the same manner as in Test Example 6. The hydrochloric acid ulcer inhibiting activity of a test compound was represented by the inhibiting percentage (i.e. the percentage of the ulcer index of the treated group to the ulcer index of the non-treated group). To the non-treated group, the solvent was administered.
# [2] = test system: Blood platelet (ADP agglutination); assay: Blood platelet agglutination inhibiting activity (ADP-induced), washed rabbit platelet suspension; assay type: cell-based, rabbit (Japanese white male rabbits); conditions: for IC50: Oryctolagus cuniculus, Platelet, ADP 10 μM, concentration suppressing agglutination to 50%, read-out: Platelet agglutination inhibiting activity ED50, ADP agglutination; for Activity ratio, platelet agglutination inhibiting activity, ADP agglutination: relative to prostacyclin = 1
# Protocol: as §1, §2, §3, §4, §5
# femoral artery = assay: Blood flow-increasing activity in the femoral artery, anesthetized dog; assay type: in vivo, crossbred adult dog; conditions: for ED50: Canis lupus familiaris, dog, near arterial injection, papaverine hydrochloride 100 μg/kg = 100%; for Activity ratio, blood flow-increasing activity in femoral artery: relative to prostacyclin = 1
# Protocol: Blood flow-increasing activity in the femoral artery
# A male or female crossbred adult dog having a weight of from 8 to 13 kg, was anesthetized by intravenous administration of sodium Pentobarbital. Then, a tracheal cannula was inserted, and artificial respiration was conducted. The blood flow in the femoral artery was measured by inserting the annula into the left femoral artery under sodium heparin treatment and providing a blood flow measuring probe at it other end, and by using an electromagnetic flow meter. The test compound was injected into the femoral artery by near arterial injection, and the blood flow-increasing activity in the femoral artery was represented by ED50 (i.e. the dose of a test compound at which the blood flow increases by 50%, as evaluated on the bais that the blood flow increase (representing substantially the maximum reaction) by the administration of 100 μg/kg of papaveline hydrochloride into the femoral artery, is evaluted to be 100%).
# [3] = test system: blood flow of various organs; assay: Blood flow increasing activity in various organs (general statement); conditions: in vivo
# [4] = background; cited from earlier work
Structure (SMILES),"ED50 (vertebral artery; dog, near arterial injection) [µg/kg]","Activity ratio, blood flow-increasing activity in vertebral artery (vertebral artery)","Indomethacine ulcer inhibiting activity, Inhibiting rate (Indomethacine ulcer) [%]",ED50 (coronary artery) [µg/kg],"Activity ratio, blood flow-increasing activity in coronary artery (coronary artery)",Anti-ulcer activity (in words) (ulcer),"Activity ratio, platelet agglutination inhibiting activity, Collagen agglutination [1]",ED50 (Ethanol ulcer) [µg/kg],"Hypotensive activity, blood pressure decrease (diastolic blood pressure; dog) [mmHg]","Activity ratio, hypotensive activity (diastolic blood pressure)",inhibition in vivo at 0.03 mg/kg (Hydrochloric acid ulcer) [%],IC50 [2] [nM],"Activity ratio, platelet agglutination inhibiting activity, ADP agglutination [2]",ED50 (femoral artery) [µg/kg],"Activity ratio, blood flow-increasing activity in femoral artery (femoral artery)",IC50 [1] [nM],Activity to increase the blood flow (in words) [3],other results
"CCC#CCC(C)[C@H](O)/C=C/[C@@H]1[C@H]2CCC(CCCCC(=O)O)=C[C@H]2C[C@H]1O (stereo partly drawn) [(f), 3-(4-carboxybutyl)-7-exo-(3α-hydroxy-4,8-dimethyl-trans-1-octen-6-ynyl)-8-endo-hydroxy-cis-bicyclo[4,3,0]nona-2-ene]",0.57,1/13,38.8,1.75,1/269,"comparable or superior to typical PG having anti-ulcer activities, such as PGE2",1/8,2.92,33,1/77,20.5,23,1/8,0.56,1/23,–,–,–
"CCC#CCC(C)[C@H](O)/C=C/[C@@H]1[C@H]2CCC(C=CCCC(=O)O)=C[C@H]2C[C@H]1O (stereo partly drawn) [(d), 3-(4-carboxy-1-butenyl)-7-exo-(3α-hydroxy-4,8-dimethyl-trans-1-octen-6-ynyl)-8-endo-hydroxy-cis-bicyclo[4,3,0]nona-2-ene]",1.9,1/43,73.5,0.38,1/38,"comparable or superior to typical PG having anti-ulcer activities, such as PGE2",–,2.55,–,1/36,24.1,8.7,1/3,0.9,1/38,–,–,"ED (50 mmHg) (diastolic blood pressure; Canis lupus familiaris, iv, dog, femoral vein, Table 1, read-out: Hypotensive activity ED50 (dose reducing diastolic blood pressure by 50 mmHg)): 8.7 µg/kg"
"CCCCC[C@H](O)/C=C/[C@@H]1[C@H]2CCC(C=CCCC(=O)O)=C[C@H]2C[C@H]1O [(c), 3-(4-carboxy-1-butenyl)-7-exo-(3α-hydroxy-trans-1-octenyl)-8-endo-hydroxy-cis-bicyclo[4,3,0]nona-2-ene]",–,–,–,2.1,1/210,–,1/21,–,27.9,about 1/125 and 1/125,13.5,50,1/17,0.56,1/23,73,activity to increase the blood flow of various organs to a proper extent,"Blood flow increase in vertebral artery (vertebral artery; dog, at 3 μg/kg, near arterial injection): 36.9%; Indomethacine ulcer inhibition (in words) (Indomethacine ulcer): Certain inhibition; Ethanol ulcer inhibition (Ethanol ulcer; oral administration of 30 μg/kg): 31.7%"
"CCC#CCC(C)[C@H](O)/C=C/[C@@H]1[C@H]2CCC(CCCC(=O)O)=C[C@H]2C[C@H]1O (stereo partly drawn) [(b), 3-(3-carboxypropyl)-7-exo-(3α-hydroxy-4,8-dimethyl-trans-1-octen-6-ynyl)-8-endo-hydroxy-cis-bicyclo[4,3,0]nona-2-ene]",0.75,1/17,99.4,1.2,1/120,"comparable or superior to typical PG having anti-ulcer activities, such as PGE2",1/12,2.79,27.9,about 1/135,54.8,77,1/27,0.35,1/15,44,"activity to increase the blood flow of the vertebral artery, coronary artery and femoral artery",–
CCCCC[C@H](O)/C=C/[C@@H]1[C@H]2C=C(CCCCC(=O)O)C[C@H]2C[C@H]1O [9-(O)-methano-Δ^6 -PGI1],–,–,–,–,–,–,–,–,–,–,–,–,–,–,–,–,–,Chemical stability (in words) [4]: chemically stable
